Measurements reported in ChEMBL document CHEMBL5543057, “Hydrophobic tag-based protein degradation: Development, opportunity and challenge” (Eur J Med Chem, 2023).
Blank lines part the entries; values can stand above or below the molecule they belong to.

Tests used:
[1] = target: Serine/threonine-protein kinase PLK1 (Homo sapiens, UniProt P53350); experiment: Inhibition of PLK1 (unknown origin) (37 to 345 residues) expressed in Escherichia coli BL21 (DE3) incubated for 18 hrs by fluorescence polarization assay
[2] = system: HeLa; experiment: Antiproliferative activity against human HeLa cells assessed as reduction in cell viability incubated for 24 hrs by MTT assay; type: functional, cell-based
[3] = system: NCI/ADR-RES; experiment: Antiproliferative activity against human MCF7ADR cells assessed as reduction in cell growth measured after 48 hrs by MTT assay; type: functional, cell-based
[4] = Half life in Sprague-Dawley rat at 1 mg/kg, iv measured for 24 hrs by LC-MS/MS analysis; type: ADME, organism-based; conditions: in vivo
[5] = Clearance in Sprague-Dawley rat at 50 mg/kg, ip measured after 24 hrs by LC-MS/MS analysis; type: ADME, organism-based; conditions: in vivo
[6] = Half life in Sprague-Dawley rat at 50 mg/kg, ip measured for 24 hrs by LC-MS/MS analysis; type: ADME, organism-based; conditions: in vivo
[7] = Clearance in Sprague-Dawley rat at 1 mg/kg, iv measured for 24 hrs by LC-MS/MS analysis; type: ADME, organism-based; conditions: in vivo
[8] = Oral bioavailability in Sprague-Dawley rat at 1 mg/kg by LC/MS/MS analysis; type: ADME, organism-based; conditions: in vivo
[9] = target: Protein cereblon/Bromodomain-containing protein 4 (Homo sapiens, UniProt O60885+Q96SW2); experiment: PROTAC activity at CRBN/BRD4 in human MV4-11 cells assessed as induction of degradation of BRD4 measured after 24 hrs by Western blot analysis; type: cell-based
Protein cereblon/Bromodomain-containing protein 4, sequence (Q96SW2 whole entry, looked up, other chains not shown): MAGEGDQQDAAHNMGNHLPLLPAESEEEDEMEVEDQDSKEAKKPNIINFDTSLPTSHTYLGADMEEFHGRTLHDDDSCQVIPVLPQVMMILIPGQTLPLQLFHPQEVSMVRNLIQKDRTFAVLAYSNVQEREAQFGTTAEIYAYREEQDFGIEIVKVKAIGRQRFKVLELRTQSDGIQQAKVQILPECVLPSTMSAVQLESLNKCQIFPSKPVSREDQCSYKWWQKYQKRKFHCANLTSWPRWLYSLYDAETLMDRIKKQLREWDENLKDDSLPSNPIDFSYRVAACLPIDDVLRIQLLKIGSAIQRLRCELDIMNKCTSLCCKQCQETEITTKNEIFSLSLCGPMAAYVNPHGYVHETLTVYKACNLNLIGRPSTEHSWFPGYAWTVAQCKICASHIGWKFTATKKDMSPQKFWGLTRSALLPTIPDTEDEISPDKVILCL

Serine/threonine-protein kinase PLK1, sequence (P53350 whole entry, the tested form may be a part): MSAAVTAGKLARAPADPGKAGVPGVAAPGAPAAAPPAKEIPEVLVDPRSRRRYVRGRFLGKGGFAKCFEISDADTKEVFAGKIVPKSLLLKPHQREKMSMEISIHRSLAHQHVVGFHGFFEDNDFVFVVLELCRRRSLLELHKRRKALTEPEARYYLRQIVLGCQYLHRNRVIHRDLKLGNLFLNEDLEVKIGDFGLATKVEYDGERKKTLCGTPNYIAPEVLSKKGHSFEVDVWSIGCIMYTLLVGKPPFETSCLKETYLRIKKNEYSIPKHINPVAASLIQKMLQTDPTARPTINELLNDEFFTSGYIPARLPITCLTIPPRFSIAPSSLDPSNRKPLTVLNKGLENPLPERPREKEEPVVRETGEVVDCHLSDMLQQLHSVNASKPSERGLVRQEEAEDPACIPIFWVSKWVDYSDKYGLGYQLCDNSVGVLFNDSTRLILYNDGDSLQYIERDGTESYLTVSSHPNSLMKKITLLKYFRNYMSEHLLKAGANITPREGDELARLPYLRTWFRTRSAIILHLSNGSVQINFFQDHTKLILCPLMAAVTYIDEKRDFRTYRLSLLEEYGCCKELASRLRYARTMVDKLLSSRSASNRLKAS

IC50 [1]: 1400 nM
IC50 [2]: 10500 nM
SMILES: CC1=C/C(=N/OC(=O)c2ccccc2C)C(C)=CC1=O

SMILES: CC1=CC(=O)[C@H]2/C(C=O)=C\C[C@H]3[C@@H]([C@@H](C)/C=C\C=C/C(=O)OCCOCCOCCOC(=O)CC45CC6CC(CC(C6)C4)C5)CC[C@]3(C)C[C@H]12
IC50 [3]: 480 nM

SMILES: CC1=CC(=O)[C@H]2/C(C=O)=C\C[C@H]3[C@@H]([C@@H](C)/C=C\C=C/C(=O)OCCCOC(=O)CC45CC6CC(CC(C6)C4)C5)CC[C@]3(C)C[C@H]12
IC50 [3]: 960 nM

SMILES: CC1=CC(=O)[C@H]2/C(C=O)=C\C[C@H]3[C@@H]([C@@H](C)/C=C\C=C/C(=O)OCCOCCOCCOCCOC(=O)CC45CC6CC(CC(C6)C4)C5)CC[C@]3(C)C[C@H]12
IC50 [3]: 2030 nM

SMILES: CC1=CC(=O)[C@H]2/C(C=O)=C\C[C@H]3[C@@H]([C@@H](C)/C=C\C=C/C(=O)OCCCCCCCCOC(=O)CC45CC6CC(CC(C6)C4)C5)CC[C@]3(C)C[C@H]12
IC50 [3]: 1490 nM

SMILES: CC1=CC(=O)[C@H]2/C(C=O)=C\C[C@H]3[C@@H]([C@@H](C)/C=C\C=C/C(=O)OCCOCCOC(=O)CC45CC6CC(CC(C6)C4)C5)CC[C@]3(C)C[C@H]12
IC50 [3]: 870 nM

half-life [4]: 25.2 min
CL/F [5]: 41.4 mL/min/kg
half-life [6]: 31.7 min
clearance [7]: 138 mL/min/kg
bioavailability [8]: 8.6%
SMILES: CCc1cc2c(cc1N1CCN(CCCCC(=O)NCC3CC4C=CC3C4)CC1)C(C)(C)c1[nH]c3cc(C#N)ccc3c1C2=O (stereo unspecified)

DC50 [9]: 10000 nM
SMILES: CC(C)C[C@H](NC(=O)[C@H](C)NC(=O)[C@H](C)NC(=O)[C@H](C)NC(=O)[C@H](C)NC(=O)[C@H](CC(C)C)NC(=O)[C@@H](N)CCCNC(=N)N)C(=O)N[C@@H](CC(C)C)C(=O)N1CCC[C@H]1C(=O)N1CCC[C@H]1C(=O)N[C@H](C(=O)N[C@@H](CCC(=O)O)C(=O)N[C@@H](CCC(N)=O)C(=O)N[C@@H](CC(=O)O)C(=O)N[C@@H](CC(C)C)C(=O)N[C@@]1(C)CCC/C=C\CCC[C@@](C)(C(=O)N[C@@H](Cc2ccc(O)cc2)C(N)=O)NC(=O)[C@H](CC2CCCCC2)NC(=O)[C@H](CC(C)C)NC(=O)[C@H](CCCCN)NC1=O)[C@@H](C)O

IC50 [1]: 10500 nM
SMILES: CC1=C/C(=N\OC(=O)c2ccc(CNC(=O)CCc3cn(CCCCCCOCCOCCNC(=O)CC4C5CC6CC(C5)CC4C6)nn3)cc2C)C(C)=CC1=O (stereo unspecified)

IC50 [1]: 48200 nM
SMILES: CC1=C/C(=N\OC(=O)c2ccc(CNC(=O)CCc3cn(CCCCCCOCCOCCNC(=O)[C@H](C)CCC4C5CC6CC(C5)CC4C6)nn3)cc2C)C(C)=CC1=O (stereo partly specified)

DC50 [9]: 5000 nM
SMILES: CC(C)C[C@H](NC(=O)CCOCCOCCOCCNC(=O)CNC1C2CC3CC(C2)CC1C3)C(=O)N[C@@H](CC(C)C)C(=O)N1CCC[C@H]1C(=O)N1CCC[C@H]1C(=O)N[C@H](C(=O)N[C@@H](CCC(=O)O)C(=O)N[C@@H](CCC(N)=O)C(=O)N[C@@H](CC(=O)O)C(=O)N[C@@H](CC(C)C)C(=O)N[C@@]1(C)CCC/C=C\CCC[C@@](C)(C(=O)N[C@@H](Cc2ccc(O)cc2)C(N)=O)NC(=O)[C@H](CC2CCCCC2)NC(=O)[C@H](CC(C)C)NC(=O)[C@H](CCCCN)NC1=O)[C@@H](C)O (stereo partly specified)
